Source: patent US11345708B2, “Substituted imidazo[1,2-a]imidazoles as modulators of metabotropic glutamate receptor 4 activity” (Hoffmann-La Roche Inc., priority 2017, dated 2022)

Molecular target: T1, human mGlu4 receptor (Homo sapiens, UniProt Q14833)
T1 construct: expressed in transfected cells; host or cells: HEK-293 (monoclonal, stably transfected)
Experiment: Ca2+ mobilization in vitro assay on recombinant human mGlu4 expressed in HEK293 cells
Format: cell-based
Conditions: HEK-293 cells stably expressing human mGlu4; L-AP4 added at EC20; Fluo-4 fluorescence; read-out: EC50 (uM) mGlu4 PAM
Procedure: Determination of EC50 Values Using a Ca2+ Mobilization In Vitro Assay on Recombinant Human mGlu4 Expressed in HEK293 Cells:
A monoclonal HEK-293 cell line stably transfected with a cDNA encoding for the human mGlu4 receptor was generated; for the work with mGlu4 Positive Allosteric Modulators (PAMs), a cell line with low receptor expression levels and low constitutive receptor activity was selected to allow the differentiation of agonistic versus PAM activity. Cells were cultured according to standard protocols (Freshney, 2000) in Dulbecco's Modified Eagle Medium with high glucose supplemented with 1 mM glutamine, 10% (vol/vol) heat-inactivated bovine calf serum, Penicillin/Streptomycin, 50 μg/ml hygromycin and 15 μg/ml blasticidin (all cell culture reagents and antibiotics from Invitrogen, Basel, Switzerland).
About 24 hrs before an experiment, 5×10^4 cells/well were seeded in poly-D-lysine coated, black/clear-bottomed 96-well plates. The cells were loaded with 2.5 μM Fluo-4 AM in loading buffer (1×HBSS, 20 mM HEPES) for 1 hr at 37° C. and washed five times with loading buffer. The cells were transferred into a Functional Drug Screening System 7000 (Hamamatsu, Paris, France), and 11 half logarithmic serial dilutions of test compound at 37° C. were added and the cells were incubated for 10-30 min. with on-line recording of fluorescence. Following this pre-incubation step, the agonist (2S)-2-amino-4-phosphonobutanoic acid (L-AP4) was added to the cells at a concentration corresponding to EC20 with on-line recording of fluorescence; in order to account for day-to-day variations in the responsiveness of cells, the EC20 of L-AP4 was determined immediately ahead of each experiment by recording of a full dose-response curve of L-AP4.
Responses were measured as peak increase in fluorescence minus basal (i.e. fluorescence without addition of L-AP4), normalized to the maximal stimulatory effect obtained with saturating concentrations of L-AP4. Graphs were plotted with the % maximal stimulatory using XLfit, a curve fitting program that iteratively plots the data using Levenburg Marquardt algorithm. The single site competition analysis equation used was y=A+((B−A)/(1+((x/C)D))), where y is the % maximal stimulatory effect, A is the minimum y, B is the maximum y, C is the EC50, x is the log 10 of the concentration of the competing compound and D is the slope of the curve (the Hill Coefficient). From these curves the EC50 (drug concentration at which 50% of the maximal receptor activation was achieved), the Hill coefficient as well as the maximal response in % of the maximal stimulatory effect obtained with saturating concentrations of L-AP4 were calculated (see Fig. 1).
A depression of the signal observed after addition of the EC20 concentration of L-AP4 was indicative of an inhibitory activity of the test compound.

T1 sequence (Q14833 33-912): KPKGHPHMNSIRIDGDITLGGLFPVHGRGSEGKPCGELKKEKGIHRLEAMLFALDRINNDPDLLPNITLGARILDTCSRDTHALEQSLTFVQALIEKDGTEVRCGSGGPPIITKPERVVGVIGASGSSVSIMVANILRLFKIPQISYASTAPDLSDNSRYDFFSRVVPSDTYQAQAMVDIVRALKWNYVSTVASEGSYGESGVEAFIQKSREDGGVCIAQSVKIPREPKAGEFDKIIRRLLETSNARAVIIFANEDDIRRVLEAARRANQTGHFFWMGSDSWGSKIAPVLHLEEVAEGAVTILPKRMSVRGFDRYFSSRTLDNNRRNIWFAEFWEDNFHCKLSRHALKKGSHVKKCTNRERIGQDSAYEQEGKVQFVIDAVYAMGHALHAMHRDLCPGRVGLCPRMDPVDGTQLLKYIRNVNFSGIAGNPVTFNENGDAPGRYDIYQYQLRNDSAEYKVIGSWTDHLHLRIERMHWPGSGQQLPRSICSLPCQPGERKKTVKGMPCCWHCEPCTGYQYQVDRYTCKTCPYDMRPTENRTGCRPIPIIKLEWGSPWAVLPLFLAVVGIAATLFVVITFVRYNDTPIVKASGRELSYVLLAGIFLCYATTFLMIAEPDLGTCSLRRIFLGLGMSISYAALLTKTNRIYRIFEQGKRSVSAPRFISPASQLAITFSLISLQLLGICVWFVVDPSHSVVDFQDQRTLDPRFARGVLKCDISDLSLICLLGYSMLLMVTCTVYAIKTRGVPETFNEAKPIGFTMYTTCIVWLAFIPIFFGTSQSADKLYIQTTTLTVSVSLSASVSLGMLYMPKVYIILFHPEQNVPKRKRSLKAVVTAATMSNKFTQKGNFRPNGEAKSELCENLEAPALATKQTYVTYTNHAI

Molecule	EC50 [µM]
O=C1N(c2c(F)cc(C#Cc3ccccc3)cc2F)c2ncc(-c3cn[nH]c3)n2C12CC2 [Example 41, 3-[2,6-Difluoro-4-(2-phenylethynyl)phenyl]-6-(1H-pyrazol-4-yl)-2,3-dihydrospiro[[1,3]diazolo[1,2-a]imidazole-1,1′-cyclopropane]-2-one]	0.238
CC1(C)C(=O)N(c2c(F)cc(C#Cc3ccccc3)cc2Cl)c2ncc(I)n21 [Example 10, 1-(2-chloro-6-fluoro-4-(phenylethynyl)phenyl)-5-iodo-3,3-dimethyl-1H-imidazo[1,2-a]imidazol-2(3H)-one]	0.371
O=C1N(c2c(F)cc(C#Cc3ccccc3)cc2F)c2ncc(-c3ccncn3)n2C12CC2 [Example 18, 3′-[2,6-Difluoro-4-(2-phenylethynyl)phenyl]-6′-(pyrimidin-4-yl)-2′,3′-dihydrospiro[cyclopropane-1,1′-imidazo-[1,2-a][1,3]diazole]-2′-one]	0.361
O=C1N(c2c(F)cc(C#Cc3cccnc3)cc2F)c2ncc(-c3ccccn3)n2C12CC2 [Example 17, 7′-[2,6-difluoro-4-[2-(3-pyridyl)ethynyl]phenyl]-3′-(2-pyridyl)spiro[cyclopropane-1,5′-imidazo[1,2-a]imidazole]-6′-one]	0.283
7′-[2,6-difluoro-4-[2-(3-pyridyl)ethynyl]phenyl]-3′-(2-methylpyrazol-3-yl)spiro[cyclopropane-1,5′-imidazo[1,2-a]imidazole]-6′-one [Example 30]	0.143
O=C1N(c2c(F)cc(C#Cc3ccccc3)cc2F)c2ncc(I)n2C12CC2 [Example 9, 3-[2,6-difluoro-4-(2-phenylethynyl)phenyl]-6-iodo-2,3-dihydrospiro[[1,3]diazolo[1,2-a]imidazole-1,1′-cyclopropane]-2-one]	0.245
O=C(Nc1cc(F)c(N2C(=O)C3(CC3)n3c(C4(O)COC4)cnc32)c(F)c1)c1ccccn1 [Example 51, N-[3,5-difluoro-4-[3′-(3-hydroxyoxetan-3-yl)-6′-oxo-spiro[cyclopropane-1,5′-imidazo[1,2-a]imidazole]-7′-yl]phenyl]pyridine-2-carboxamide]	0.363
Cn1ccc(-c2cnc3n2C2(CC2)C(=O)N3c2c(F)cc(-c3ccc(OC(F)F)cc3)cc2F)n1 [Example 45, 7′-[4-[4-(difluoromethoxy)phenyl]-2,6-difluoro-phenyl]-3′-(1-methylpyrazol-3-yl)spiro[cyclopropane-1,5′-imidazo[1,2-a]imidazole]-6′-one]	0.621
Cn1cc(-c2cnc3n2C2(CC2)C(=O)N3c2c(F)cc(C#Cc3cccnc3)cc2F)cn1 [Example 37, 1′-(2,6-difluoro-4-(pyridin-3-ylethynyl)phenyl)-5′-(1-methyl-1H-pyrazol-4-yl)spiro[cyclopropane-1,3′-imidazo[1,2-a]imidazol]-2′(1′H)-one]	0.229
Cn1nccc1-c1cnc2n1C1(CC1)C(=O)N2c1c(F)cc(C#Cc2cccnc2)cc1F [Example 46, 7′-[2,6-difluoro-4-[2-(3-pyridyl)ethynyl]phenyl]-3′-(2-methylpyrazol-3-yl)spiro[cyclopropane-1,5′-imidazo[1,2-a]imidazole]-6′-one]	0.673
O=C(Nc1cc(F)c(N2C(=O)C3(CC3)n3ccnc32)c(F)c1)c1ccccn1 [Example 7, N-[3,5-difluoro-4-(6′-oxospiro[cyclopropane-1,5′-imidazo[1,2-a]imidazole]-7′-yl)phenyl]pyridine-2-carboxamide]	0.541
CC(C)(C)c1cnn(-c2cc(F)c(N3C(=O)C4(CC4)n4c(-c5ccccn5)cnc43)c(F)c2)c1 [Example 19, 7′-[4-(4-tert-butylpyrazol-1-yl)-2,6-difluoro-phenyl]-3′-(2-pyridyl)spiro[cyclopropane-1,5′-imidazo[1,2-a]imidazole]-6′-one]	0.426
Cc1cnc2n1C1(CC1)C(=O)N2c1c(F)cc(C#Cc2cccnc2)cc1F [Example 49, 7′-[2,6-difluoro-4-[2-(3-pyridyl)ethynyl]phenyl]-3′-methyl-spiro[cyclopropane-1,5′-imidazo[1,2-a]imidazole]-6′-one]	0.829
Cc1cnc2n1C1(CC1)C(=O)N2c1c(F)cc(NC(=O)c2ccccn2)cc1F [Example 48, N-[3,5-difluoro-4-(3′-methyl-6′-oxo-spiro[cyclopropane-1,5′-imidazo[1,2-a]imidazole]-7′-yl)phenyl]pyridine-2-carboxamide]	0.377
CC1C(=O)N(c2c(F)cc(C#Cc3ccccc3)cc2F)c2nccn21 (single isomer, unassigned; enantiomer 1) [Example 3, 1-(2,6-difluoro-4-(phenylethynyl)phenyl)-3-methyl-1H-imidazo[1,2-a]imidazol-2(3H)-one (enantiomer 1)]	0.453
CC1(C)C(=O)N(c2c(F)cc(C#Cc3ccccc3)cc2F)c2nccn21 [Example 5, 1-(2,6-difluoro-4-(phenylethynyl)phenyl)-3,3-dimethyl-1H-imidazo[1,2-a]imidazol-2(3H)-one]	0.468

More lines, in order of falling EC50, values ahead:

EC50 [µM]	Molecule
0.195	Cn1cc(-c2cnc3n2C(C)(C)C(=O)N3c2c(F)cc(C#Cc3ccccc3)cc2Cl)cn1 [Example 34, 1-(2-chloro-6-fluoro-4-(phenylethynyl)phenyl)-3,3-dimethyl-5-(1-methyl-1H-pyrazol-4-yl)-1H-imidazo[1,2-a]imidazol-2(3H)-one]
0.178	O=C1N(c2c(F)cc(C#Cc3ccccc3)cc2F)c2nccn2C12CC2 [Example 1, 3-[2,6-Difluoro-4-(2-phenylethynyl)phenyl]-2,3-dihydrospiro[[1,3]diazolo[1,2-a]imidazole-1,1′-cyclopropane]-2-one]
0.178	O=C1N(c2c(F)cc(C#Cc3ccccc3)cc2F)c2ncc(-c3cccnc3)n2C12CC2 [Example 33, 3-[2,6-Difluoro-4-(2-phenylethynyl)phenyl]-6-(pyridin-3-yl)-2,3-dihydrospiro[[1,3]diazolo[1,2-a]imidazole-1,1′-cyclopropane]-2-one]
0.156	O=C1N(c2c(F)cc(C#Cc3ccccc3)cc2F)c2ncc(-c3ccncc3)n2C12CC2 [Example 32, 3-[2,6-Difluoro-4-(2-phenylethynyl)phenyl]-6-(pyridin-4-yl)-2,3-dihydrospiro[[1,3]diazolo[1,2-a]imidazole-1,1′-cyclopropane]-2-one]
0.139	Cn1cc(-c2cnc3n2C2(CC2)C(=O)N3c2c(F)cc(C#Cc3ccccc3)cc2F)cn1 [Example 29, 3-[2,6-Difluoro-4-(2-phenylethynyl)phenyl]-6-(1-methyl-1H-pyrazol-4-yl)-2,3-dihydrospiro[[1,3]diazolo[1,2-a]imidazole-1,1′-cyclopropane]-2-one]
0.135	O=C1N(c2c(F)cc(C#Cc3cccnc3)cc2F)c2ncc(-c3cc[nH]n3)n2C12CC2 [Example 28, 7′-[2,6-difluoro-4-[2-(3-pyridyl)ethynyl]phenyl]-3′-(1H-pyrazol-3-yl)spiro[cyclopropane-1,5′-imidazo[1,2-a]imidazole]-6′-one]
0.121	O=C1N(c2c(F)cc(C#Cc3ccccc3)cc2F)c2ncc(-c3cc[nH]n3)n2C12CC2 [Example 27, 3-[2,6-Difluoro-4-(2-phenylethynyl)phenyl]-6-(1H-pyrazol-3-yl)-2,3-dihydrospiro[[1,3]diazolo[1,2-a]-imidazole-1,1′-cyclopropane]-2-one]
0.076	O=C1N(c2c(F)cc(C#Cc3ccccc3)cc2F)c2ncc(-c3ccccn3)n2C12CC2 [Example 12, 3-[2,6-Difluoro-4-(2-phenylethynyl)phenyl]-6-(pyridin-2-yl)-2,3-dihydrospiro[[1,3]diazolo[1,2-a]imidazole-1,1′-cyclopropane]-2-one]
0.059	O=C(Nc1cc(F)c(N2C(=O)C3(CC3)n3c(-c4ccccn4)cnc32)c(F)c1)c1ccccn1 [Example 11, N-[3,5-difluoro-4-[6′-oxo-3′-(2-pyridyl)spiro[cyclopropane-1,5′-imidazo[1,2-a]imidazole]-7′-yl]phenyl]pyridine-2-carboxamide]
0.015	O=C(Nc1cc(F)c(N2C(=O)C3(CC3)n3c(-c4cc[nH]n4)cnc32)c(F)c1)c1ccccn1 [Example 43, N-[3,5-difluoro-4-[6′-oxo-3′-(1H-pyrazol-3-yl)spiro[cyclopropane-1,5′-imidazo[1,2-a]imidazole]-7′-yl]phenyl]pyridine-2-carboxamide]
